Data reported in patent publication US8022091B2, “Triazole derivative” (Taisho Pharmaceutical Co., Ltd., priority 2006, dated 2011).

Molecular target: T1, human Edg-1 (S1P1) (Homo sapiens, UniProt P21453)
T1 construct: expressed in transfected cells; host or cells: HEK-293
Assay: S1P1 binding assay: inhibition of [33P]-S1P binding to membrane fraction of HEK-293 cells transferred with the human Edg-1 (S1P1) gene
Conditions: test compound 10 μM; inhibition of [33P]-S1P binding, membrane fraction
Procedure, shortened: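 With 0.1 nM [33P]-S1P and compound (10^−5M single point, or a concentration range for IC50) in 0.1% DMSO, membrane fractions from human Edg-1-expressing HEK-293 cells were treated for one hour at 30° C in 20 mM Tris-HCl pH 7.4 with NaF, deoxypyridoxine and BSA. Bound label was measured after filtration, with untransfected-cell background subtracted.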

T1 sequence (P21453 whole entry): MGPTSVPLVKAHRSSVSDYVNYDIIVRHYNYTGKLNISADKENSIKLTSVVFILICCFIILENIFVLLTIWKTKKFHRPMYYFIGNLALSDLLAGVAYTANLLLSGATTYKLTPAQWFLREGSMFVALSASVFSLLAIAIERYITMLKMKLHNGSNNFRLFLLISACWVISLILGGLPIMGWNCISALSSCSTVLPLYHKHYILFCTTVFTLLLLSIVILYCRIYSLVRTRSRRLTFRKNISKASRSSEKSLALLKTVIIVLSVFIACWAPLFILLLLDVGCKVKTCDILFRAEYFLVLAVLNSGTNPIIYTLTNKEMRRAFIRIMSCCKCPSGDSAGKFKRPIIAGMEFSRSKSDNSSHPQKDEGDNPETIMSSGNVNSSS

Structure (SMILES) | inhibition at 10 µM
CCn1c(Oc2cccc(N3CCN(C)CC3)c2)nnc1[C@@H](C)NS(=O)(=O)c1ccc(S(C)(=O)=O)cc1 [Compound 520] | 69.9%
CCn1c(Oc2cccc(N3CCN(C)CC3)c2)nnc1[C@@H](C)NS(=O)(=O)c1cccc2ccccc12 [Compound 522] | 98.4%
CCn1c(Oc2cccc(N3CCN(C)CC3)c2)nnc1[C@@H](C)NS(=O)(=O)CCc1cccc2ccccc12 [Compound 523] | 114%
CCn1c(Oc2cccc(N3CCN(C)CC3)c2)nnc1[C@@H](C)NS(=O)(=O)c1c(F)c(F)c(F)c(F)c1F [Compound 524] | 83%
CCn1c(Oc2cccc(N3CCN(C)CC3)c2)nnc1[C@@H](C)NS(=O)(=O)c1cc(Cl)c(Cl)cc1Cl [Compound 526] | 112%
CCn1c(Oc2cccc(N3CCN(C)CC3)c2)nnc1[C@@H](C)NS(=O)(=O)c1c(C(C)C)cc(C(C)C)cc1C(C)C [Compound 527] | 52.1%
CCn1c(Oc2cccc(N3CCN(C)CC3)c2)nnc1[C@@H](C)NS(=O)(=O)c1cccc(C(F)(F)F)c1 [Compound 530] | 115%
CCn1c(Oc2cccc(N3CCN(C)CC3)c2)nnc1[C@@H](C)NS(=O)(=O)c1ccc(OC(F)(F)F)cc1 [Compound 532] | 99.2%
CCn1c(Oc2cccc(N3CCN(C)CC3)c2)nnc1[C@@H](C)NS(=O)(=O)c1ccc2c(c1)CN(C(=O)C(F)(F)F)CC2 [Compound 536] | 50.3%
CCn1c(Oc2cccc(N3CCN(C)CC3)c2)nnc1[C@@H](C)NS(=O)(=O)c1ccc(-c2csnn2)s1 [Compound 538] | 97.1%
CCn1c(Oc2cccc(N3CCN(C)CC3)c2)nnc1[C@@H](C)NS(=O)(=O)c1c(C)nn(C)c1Cl [Compound 540] | 64.3%
CCn1c(Oc2cccc(N3CCN(C)CC3)c2)nnc1[C@@H](C)NS(=O)(=O)c1c(C)noc1C [Compound 541] | 65.5%
CCn1c(Oc2cccc(N3CCN(C)CC3)c2)nnc1[C@@H](C)NS(=O)(=O)c1c(Cl)ccc2nonc12 [Compound 542] | 50.1%
CCn1c(Oc2cccc(N3CCN(C)CC3)c2)nnc1[C@@H](C)NS(=O)(=O)c1ccc(C(=O)OC)n1C [Compound 543] | 112%
CCn1c(Oc2cccc(N3CCN(C)CC3)c2)nnc1[C@@H](C)NS(=O)(=O)c1c(C)nn(C)c1C [Compound 544] | 53.9%
CCn1c(Oc2cccc(N3CCN(C)CC3)c2)nnc1[C@@H](C)NS(=O)(=O)c1ccccc1C(=O)OC [Compound 545] | 50.7%
CCn1c(Oc2cccc(N3CCN(C)CC3)c2)nnc1[C@@H](C)NS(=O)(=O)c1ccccc1C(F)(F)F [Compound 546] | 55.8%
CCn1c(Oc2cccc(N3CCN(C)CC3)c2)nnc1[C@@H](C)NS(=O)(=O)c1c(C)c(C)cc(C)c1C [Compound 549] | 89.2%

Structure (SMILES) | inhibition at 10 µM
CCn1c(Oc2cccc(N3CCN(C)CC3)c2)nnc1[C@@H](C)NS(=O)(=O)c1cc(C(F)(F)F)cc(C(F)(F)F)c1 [Compound 553] | 107%
CCn1c(Oc2cccc(N3CCN(C)CC3)c2)nnc1[C@@H](C)NS(=O)(=O)c1cc(Cl)cc(Cl)c1 [Compound 554] | 116%
CCn1c(Oc2cccc(N3CCN(C)CC3)c2)nnc1[C@@H](C)NS(=O)(=O)c1c(C)cc(OC)c(C)c1C [Compound 558] | 64.8%
CCn1c(Oc2cccc(N3CCN(C)CC3)c2)nnc1[C@@H](C)NS(=O)(=O)c1c(C)c(C)c(C)c(C)c1C [Compound 561] | 92.4%
CCn1c(Oc2cccc(N3CCN(C)CC3)c2)nnc1[C@@H](C)NS(=O)(=O)c1ccccc1OC(F)(F)F [Compound 563] | 64.1%
CCn1c(Oc2cccc(N3CCN(C)CC3)c2)nnc1[C@@H](C)NS(=O)(=O)c1ccc(C#N)cc1 [Compound 564] | 105%
CCn1c(Oc2cccc(N3CCN(C)CC3)c2)nnc1[C@@H](C)NS(=O)(=O)c1c(Cl)cc(Cl)cc1Cl [Compound 566] | 88.7%
CCn1c(Oc2cccc(N3CCN(C)CC3)c2)nnc1[C@@H](C)NS(=O)(=O)c1ccc(C(C)C)cc1 [Compound 573] | 86.3%
CCn1c(Oc2cccc(N3CCN(C)CC3)c2)nnc1[C@@H](C)NS(=O)(=O)c1c(Cl)cc(C(F)(F)F)cc1Cl [Compound 579] | 87.6%
CCn1c(Oc2cccc(N3CCN(C)CC3)c2)nnc1[C@@H](C)NS(=O)(=O)c1cc(F)c(F)cc1Cl [Compound 580] | 89.2%
CCn1c(Oc2cccc(N3CCN(C)CC3)c2)nnc1[C@@H](C)NS(=O)(=O)c1cc(F)c(Cl)cc1F [Compound 583] | 109%
CCn1c(Oc2cccc(N3CCN(C)CC3)c2)nnc1[C@@H](C)NS(=O)(=O)Cc1ccc(Cl)c(Cl)c1 [Compound 586] | 87.9%
CCn1c(Oc2cccc(N3CCN(C)CC3)c2)nnc1[C@@H](C)NS(=O)(=O)CC(c1ccccc1)c1ccccc1 [Compound 587] | 60%
CCn1c(Oc2cccc(N3CCN(C)CC3)c2)nnc1[C@@H](C)NS(=O)(=O)c1cc(C)c(Cl)cc1Cl [Compound 588] | 109%
CCn1c(Oc2cccc(N3CCN(C)CC3)c2)nnc1[C@@H](C)NS(=O)(=O)c1c(F)c(Br)cc(F)c1Br [Compound 589] | 80.2%
CCn1c(Oc2cccc(N3CCN(C)CC3)c2)nnc1[C@@H](C)NS(=O)(=O)c1c(F)cccc1F [Compound 590] | 62.3%
CCn1c(Oc2cccc(N3CCN(C)CC3)c2)nnc1[C@@H](C)NS(=O)(=O)c1cc(C(F)(F)F)ccc1Cl [Compound 591] | 77.5%

Results, then the compound that gave them:

inhibition at 10 µM | Structure (SMILES)
111% | CCn1c(Oc2cccc(N3CCN(C)CC3)c2)nnc1[C@@H](C)NS(=O)(=O)c1ccc(I)cc1 [Compound 525]
106% | CCn1c(Oc2cccc(N3CCN(C)CC3)c2)nnc1[C@@H](C)NS(=O)(=O)c1ccc(C)cc1 [Compound 528]
100% | CCn1c(Oc2cccc(N3CCN(C)CC3)c2)nnc1[C@@H](C)NS(=O)(=O)c1ccccc1C [Compound 531]
101% | CCn1c(Oc2cccc(N3CCN(C)CC3)c2)nnc1[C@@H](C)NS(=O)(=O)c1cccc(C)c1 [Compound 534]
96.7% | CCn1c(Oc2cccc(N3CCN(C)CC3)c2)nnc1[C@@H](C)NS(=O)(=O)c1cc(C)ccc1C [Compound 537]
96.7% | CCCc1ccc(S(=O)(=O)N[C@H](C)c2nnc(Oc3cccc(N4CCN(C)CC4)c3)n2CC)cc1 [Compound 548]
104% | CCn1c(Oc2cccc(N3CCN(C)CC3)c2)nnc1[C@@H](C)NS(=O)(=O)c1cccc(Cl)c1Cl [Compound 550]
76.1% | CCn1c(Oc2cccc(N3CCN(C)CC3)c2)nnc1[C@@H](C)NS(=O)(=O)c1c(C)cccc1Cl [Compound 551]
67.2% | CCn1c(Oc2cccc(N3CCN(C)CC3)c2)nnc1[C@@H](C)NS(=O)(=O)c1ccccc1Cl [Compound 552]
102% | CCn1c(Oc2cccc(N3CCN(C)CC3)c2)nnc1[C@@H](C)NS(=O)(=O)c1cccc(Cl)c1C [Compound 555]
105% | CCn1c(Oc2cccc(N3CCN(C)CC3)c2)nnc1[C@@H](C)NS(=O)(=O)c1cccc(OC)c1 [Compound 556]
107% | CCn1c(Oc2cccc(N3CCN(C)CC3)c2)nnc1[C@@H](C)NS(=O)(=O)c1cc(F)c(Br)cc1F [Compound 557]
79.3% | CCn1c(Oc2cccc(N3CCN(C)CC3)c2)nnc1[C@@H](C)NS(=O)(=O)c1cc(Br)ccc1OC [Compound 559]
74.4% | CCn1c(Oc2cccc(N3CCN(C)CC3)c2)nnc1[C@@H](C)NS(=O)(=O)c1cc(F)ccc1C [Compound 560]
93.3% | CCn1c(Oc2cccc(N3CCN(C)CC3)c2)nnc1[C@@H](C)NS(=O)(=O)c1cc(C)ccc1OC [Compound 562]
102% | CCn1c(Oc2cccc(N3CCN(C)CC3)c2)nnc1[C@@H](C)NS(=O)(=O)c1ccc(Cl)cc1Cl [Compound 567]
71.1% | CCn1c(Oc2cccc(N3CCN(C)CC3)c2)nnc1[C@@H](C)NS(=O)(=O)c1ccc(F)cc1F [Compound 568]
75% | CCn1c(Oc2cccc(N3CCN(C)CC3)c2)nnc1[C@@H](C)NS(=O)(=O)c1cc(OC)ccc1OC [Compound 569]
77.4% | CCn1c(Oc2cccc(N3CCN(C)CC3)c2)nnc1[C@@H](C)NS(=O)(=O)c1ccc(F)cc1Cl [Compound 570]
55.7% | CCn1c(Oc2cccc(N3CCN(C)CC3)c2)nnc1[C@@H](C)NS(=O)(=O)c1ccccc1F [Compound 571]
96.5% | CCn1c(Oc2cccc(N3CCN(C)CC3)c2)nnc1[C@@H](C)NS(=O)(=O)c1cccc(Cl)c1 [Compound 572]
86.9% | CCc1cc(Br)ccc1S(=O)(=O)N[C@H](C)c1nnc(Oc2cccc(N3CCN(C)CC3)c2)n1CC [Compound 574]
104% | CCn1c(Oc2cccc(N3CCN(C)CC3)c2)nnc1[C@@H](C)NS(=O)(=O)c1ccc(Br)cc1C [Compound 575]
81.4% | CCn1c(Oc2cccc(N3CCN(C)CC3)c2)nnc1[C@@H](C)NS(=O)(=O)c1ccc(C#N)cc1Cl [Compound 576]
92.4% | CCn1c(Oc2cccc(N3CCN(C)CC3)c2)nnc1[C@@H](C)NS(=O)(=O)c1ccc(F)c(F)c1F [Compound 577]
99.9% | CCn1c(Oc2cccc(N3CCN(C)CC3)c2)nnc1[C@@H](C)NS(=O)(=O)c1ccc(F)c(F)c1 [Compound 581]
106% | CCn1c(Oc2cccc(N3CCN(C)CC3)c2)nnc1[C@@H](C)NS(=O)(=O)c1ccc(Br)cc1F [Compound 582]
95.8% | CCn1c(Oc2cccc(N3CCN(C)CC3)c2)nnc1[C@@H](C)NS(=O)(=O)c1cccc(F)c1 [Compound 592]
65.9% | CCn1c(Oc2cccc(N3CCN(C)CC3)c2)nnc1[C@@H](C)NS(=O)(=O)c1ccc(NC(C)=O)c(Cl)c1 [Compound 593]
